Experimental findings from publication PMC11576293, “New series of 4,6-diaryl pyrimidines: facile synthesis and antiproliferative activity as dual EGFR/VEGFR-2 inhibitors” (Frontiers in Chemistry, 2024) are described below.

One data set has as its system CAKI-1. Briefly: NCI-60 single-dose screen. The data set is classed as cell-based. The note with it: Homo sapiens, single dose 10 µM, '-' = no inhibition, read-out: % Growth Inhibition. How it is done:
(§1) The National Cancer Institute’s Developmental Therapeutic Program (www.dtp.nci.nih.gov) has tested compounds 9–29 (except compounds 21 and 22) against 60 cancer cell lines from nine types (leukemia, lung, colon, CNS, melanoma, ovarian, renal, prostate, and breast cancer) at a single dose (10 μM) ([El-Sherief et al., 2018]). […] The most sensitive cells included leukemia (SR, K-562, and MOLT-4), lung (NCI-H522, […], and EKVX), breast (MCF-7 and T-47D), colon (HCT-15 and HT-29), and ovarian (NCI/ADR-RES).
(§2) The National Cancer Institute’s Developmental Therapeutic Program (www.dtp.nci.nih.gov) evaluated compounds 9–29 (excluding 21 and 22) against 60 cancer cell lines from nine categories (leukemia, lung, colon, CNS, melanoma, ovarian, renal, prostate, and breast cancer) at a single dose (10 μM) ([El-Sherief et al., 2018]). See Supplementary Material A1 for more details.
The term inhibition denotes the drop in the measured response relative to a control, in per cent. Turning to `COc1ccc(-c2cc(-c3ccc(Cl)cc3)nc(SCc3ccccc3)n2)cc1` [Compound 14, 2-(Benzylthio)-4-(4-chlorophenyl)-6-(4-methoxyphenyl)pyrimidine], the inhibition at 10 µM came out at 2.18%.

Another data set deals with DU-145. The data set is described as follows: NCI-60 single-dose screen. In kind it is cell-based. The conditions noted are these: Homo sapiens, single dose 10 µM, '-' = no inhibition, read-out: % Growth Inhibition. Here is the method:
as §1, §2
Take `COc1ccc(-c2cc(-c3ccc(Cl)cc3)nc(SCc3ccccc3)n2)cc1` [Compound 14, 2-(Benzylthio)-4-(4-chlorophenyl)-6-(4-methoxyphenyl)pyrimidine]: the inhibition at 10 µM is 1.74%.

A further data set deals with HCT-116. Briefly: NCI-60 single-dose screen. The note with it: Homo sapiens, single dose 10 µM, '-' = no inhibition, read-out: % Growth Inhibition. The data set is classed as cell-based. Here is the method: as §1, §2
Regarding `COc1ccc(-c2cc(-c3ccc(Cl)cc3)nc(SCc3ccccc3)n2)cc1` [Compound 14, 2-(Benzylthio)-4-(4-chlorophenyl)-6-(4-methoxyphenyl)pyrimidine], the inhibition at 10 µM is less than 0%.

The subject of the next data set is HOP-92. The data set is described as follows: NCI-60 single-dose screen. The conditions noted are these: Homo sapiens, single dose 10 µM, '-' = no inhibition, read-out: % Growth Inhibition. The data set is classed as cell-based. Here is the method:
as §1, §2
As for `COc1ccc(-c2cc(-c3ccc(Cl)cc3)nc(SCc3ccccc3)n2)cc1` [Compound 14, 2-(Benzylthio)-4-(4-chlorophenyl)-6-(4-methoxyphenyl)pyrimidine], the inhibition at 10 µM was less than 0%.

A further data set relates to HS 578T. The data set is described as follows: NCI-60 single-dose screen. In kind it is cell-based. The note with it: Homo sapiens, single dose 10 µM, '-' = no inhibition, read-out: % Growth Inhibition. How it is done: as §1, §2
`COc1ccc(-c2cc(-c3ccc(Cl)cc3)nc(SCc3ccccc3)n2)cc1` [Compound 14, 2-(Benzylthio)-4-(4-chlorophenyl)-6-(4-methoxyphenyl)pyrimidine]: the inhibition at 10 µM was less than 0%.

Another data set has as its system MDA-MB-435. The data set is described as follows: NCI-60 single-dose screen. The data set is classed as cell-based. The note with it: Homo sapiens, single dose 10 µM, '-' = no inhibition, read-out: % Growth Inhibition. How it is done:
as §1, §2
Regarding `COc1ccc(-c2cc(-c3ccc(Cl)cc3)nc(SCc3ccccc3)n2)cc1` [Compound 14, 2-(Benzylthio)-4-(4-chlorophenyl)-6-(4-methoxyphenyl)pyrimidine], the inhibition at 10 µM came to 3.68%.

A further data set relates to OVCAR-3. Briefly: NCI-60 single-dose screen. The note with it: Homo sapiens, single dose 10 µM, '-' = no inhibition, read-out: % Growth Inhibition. In kind it is cell-based. Here is the method: as §1, §2
As to `COc1ccc(-c2cc(-c3ccc(Cl)cc3)nc(SCc3ccccc3)n2)cc1` [Compound 14, 2-(Benzylthio)-4-(4-chlorophenyl)-6-(4-methoxyphenyl)pyrimidine], the inhibition at 10 µM is 6.22%.

For another data set, the system named is SF-295. Briefly: NCI-60 single-dose screen. The note with it: Homo sapiens, single dose 10 µM, '-' = no inhibition, read-out: % Growth Inhibition. In kind it is cell-based. How it is done: as §1, §2
As to `COc1ccc(-c2cc(-c3ccc(Cl)cc3)nc(SCc3ccccc3)n2)cc1` [Compound 14, 2-(Benzylthio)-4-(4-chlorophenyl)-6-(4-methoxyphenyl)pyrimidine], the inhibition at 10 µM was less than 0%.

The subject of another data set is SN12C. The data set is described as follows: NCI-60 single-dose screen. In kind it is cell-based. The note with it: Homo sapiens, single dose 10 µM, '-' = no inhibition, read-out: % Growth Inhibition. How it is done: as §1, §2
Consider `COc1ccc(-c2cc(-c3ccc(Cl)cc3)nc(SCc3ccccc3)n2)cc1` [Compound 14, 2-(Benzylthio)-4-(4-chlorophenyl)-6-(4-methoxyphenyl)pyrimidine], for which the inhibition at 10 µM worked out at 10.4%.

Another data set has as its system SW-620. The data set is described as follows: NCI-60 single-dose screen. In kind it is cell-based. The conditions noted are these: Homo sapiens, single dose 10 µM, '-' = no inhibition, read-out: % Growth Inhibition. How it is done:
as §1, §2
Turning to `COc1ccc(-c2cc(-c3ccc(Cl)cc3)nc(SCc3ccccc3)n2)cc1` [Compound 14, 2-(Benzylthio)-4-(4-chlorophenyl)-6-(4-methoxyphenyl)pyrimidine], the inhibition at 10 µM is less than 0%.

System in another data set: not listed separately
Briefly: Cell viability assay (MTT) on normal cells. The conditions noted are these: human, MCF-10A normal mammary gland epithelial cells, 4 days incubation. The data set is classed as cell-based. Here is the method:
This experiment examines the impact of the newly developed compounds 9–29 on normal cell lines to assess their safety level. The vitality of the investigated compounds was assessed using the MCF-10 A cell line, a normal human mammary gland epithelial cell line. Following 4 days of incubation on MCF-10 A cells with each examined compound at a concentration of 50 μM, the vitality of the cells was assessed using the MTT test ([Mahmoud et al., 2022]; [Mekheimer et al., 2022]).
This experiment examines the impact of the newly developed compounds 9–29 on normal cell lines to assess their safety level. The viability of 9–29 was assessed using the MCF-10 A cell line, a normal human mammary gland epithelial cell line. Following 4 days of incubation on MCF-10 A cells with each examined compound at a concentration of 50 μM, the vitality of the cells was assessed using the MTT test ([Mahmoud et al., 2022]; [Mekheimer et al., 2022]). Refer to Supplementary Material A1 for more details. […]
4.2. Biological evaluation
4.2.1. Cytotoxic activity using MTT Assay and evaluation of IC50
MTT assay was carried out to study the effect of compounds on mammary epithelial cells (MCF-10A). The medium in which cells were propagated contained Dulbecco's modified Eagle's medium (DMEM)/ Ham's F-12 medium (1:1) supplemented with epidermal growth factor (20 ng/mL), hydrocortisone (500 ng/mL), insulin (10 μg/mL), 2 mM glutamine and 10% foetal calf serum.
After every 2-3 days, the cells were passaged using trypsin ethylenediamine tetra acetic acid (EDTA). The cells were seeded at a density of 10^4 cells mL-1 in flat-bottomed culture plates containing 96 wells each. After 24 h, medium was removed from the plates and the compounds in (in 0.1% DMSO) were added (in 200 μL medium to yield a final concentration of 0.1% v/v) to the wells of plates. A single compound was designated with four wells followed by incubation of plates for 96h at 37°C. After incubation, medium was removed completely from the plates followed by addition of MTT (0.4 mg/mL in medium) to each well and subsequent incubation of plates for 3h. MTT (along with the medium) was removed and DMSO (150μL) was added to each well of the culture plates, followed by vertexing and subsequent measurement of absorbance (at 540 nm) using microplate reader. The data are shown as percentage inhibition of proliferation in comparison with controls containing 0.1% DMSO. […]
A word on the viability: it is the share of living cells, or the viability signal relative to a control. In the case of `COc1ccc(-c2cc(-c3ccc(Cl)cc3)nc(SCc3ccccc3)n2)cc1` [Compound 14, 2-(Benzylthio)-4-(4-chlorophenyl)-6-(4-methoxyphenyl)pyrimidine], the viability at 4 days, 50 µM was 90%.
The compound `COc1ccc(CSc2nc(-c3ccc(OC)cc3)cc(-c3cccc(OC)c3)n2)cc1` [Compound 22, 2-(4-Methoxybenzylthio)-6-(3-methoxyphenyl)-4-(4-methoxyphenyl)pyrimidine] returned a viability at 4 days, 50 µM of 89%.

The next data set concerns A-549. Briefly: Antiproliferative assay (MTT). The data set is classed as cell-based. The conditions noted are these: Homo sapiens, A549, A-549 (lung), read-out: Antiproliferative activity IC50 ± SEM, A-549. An excerpt:
(§3) The MTT test was employed for this investigation ([Hisham et al., 2022]; [El-Sherief et al., 2019]; [Ramadan et al., 2020]). Table 2 presents the four cancer cell lines’ median inhibitory concentration (IC50) and GI50 (average IC50) values.
(§4) The MTT test was employed for this investigation ([Hisham et al., 2022]; [El-Sherief et al., 2019]; [Ramadan et al., 2020]). The IC50 values were derived from dose-response tests. The reported data are derived from at least two independent studies, each comprising three replicates per concentration. See Supplementary Material A1 for more details.
(§5) (in 0.1% DMSO) were added (in 200 μL medium to yield a final concentration of 0.1% v/v) to the wells of plates. A single compound was designated with four wells followed by incubation of plates for 96h at 37°C. After incubation, medium was removed completely from the plates followed by addition of MTT (0.4 mg/mL in medium) to each well and subsequent incubation of plates for 3h. MTT (along with the medium) was removed and DMSO (150μL) was added to each well of the culture plates, followed by vertexing and subsequent measurement of absorbance (at 540 nm) using microplate reader. The data are shown as percentage inhibition of proliferation in comparison with controls containing 0.1% DMSO.
(§6) 4.2.1.2. Assay for antiproliferative effect […]
(§7) (10%) and 1 µg/mL each of aprotinin, leupeptin and pepstatin for 120 min. The purification was performed either at 4 °C or on ice. To record autophosphorylation level, EGFR kinase assay was carried out on the basis of DELFIA/Time-Resolved Fluorometry. The compounds were first
(§8) (1 picture or pasted object on this page, not shown here)
What is called IC50 is the concentration that inhibits the measured activity by half. As for `COc1ccc(-c2cc(-c3ccc(Cl)cc3)nc(SCc3ccccc3)n2)cc1` [Compound 14, 2-(Benzylthio)-4-(4-chlorophenyl)-6-(4-methoxyphenyl)pyrimidine], the IC50 turned out to be 28 ± 2 nM.
The same measure, in the same setting: the result for `COc1ccc(CSc2nc(-c3ccc(OC)cc3)cc(-c3cccc(OC)c3)n2)cc1` [Compound 22, 2-(4-Methoxybenzylthio)-6-(3-methoxyphenyl)-4-(4-methoxyphenyl)pyrimidine] reads 21 ± 2 nM.

The next data set concerns HT-29. Briefly: Antiproliferative assay (MTT). The note with it: Homo sapiens, HT-29 (colon), read-out: Antiproliferative activity IC50 ± SEM, HT-29. In kind it is cell-based.
Text: as §3, §4, §5, §6, §7, §8
On to `COc1ccc(-c2cc(-c3ccc(Cl)cc3)nc(SCc3ccccc3)n2)cc1` [Compound 14, 2-(Benzylthio)-4-(4-chlorophenyl)-6-(4-methoxyphenyl)pyrimidine], for which the IC50 amounted to 28 ± 2 nM.
Consider `COc1ccc(CSc2nc(-c3ccc(OC)cc3)cc(-c3cccc(OC)c3)n2)cc1` [Compound 22, 2-(4-Methoxybenzylthio)-6-(3-methoxyphenyl)-4-(4-methoxyphenyl)pyrimidine], for which the concentration for half-maximal inhibition (IC50) was found to be 23 ± 2 nM.

The subject of a further data set is MCF-7. The data set is described as follows: Antiproliferative assay (MTT). The data set is classed as cell-based. The conditions noted are these: Homo sapiens, MCF7, MCF-7 (breast), read-out: Antiproliferative activity IC50 ± SEM, MCF-7.
Text: as §3, §4, §5, §6, §7, §8
As to `COc1ccc(-c2cc(-c3ccc(Cl)cc3)nc(SCc3ccccc3)n2)cc1` [Compound 14, 2-(Benzylthio)-4-(4-chlorophenyl)-6-(4-methoxyphenyl)pyrimidine], the IC50 came out at 30 ± 2 nM.
The same measure, in the same setting: the result for `COc1ccc(CSc2nc(-c3ccc(OC)cc3)cc(-c3cccc(OC)c3)n2)cc1` [Compound 22, 2-(4-Methoxybenzylthio)-6-(3-methoxyphenyl)-4-(4-methoxyphenyl)pyrimidine] reads 23 ± 2 nM.

For the next data set, the system named is Panc-1. Briefly: Antiproliferative assay (MTT). The note with it: Homo sapiens, Panc-1 (pancreatic), read-out: Antiproliferative activity IC50 ± SEM, Panc-1. The data set is classed as cell-based.
Text: as §3, §4, §5, §6, §7, §8
Regarding `COc1ccc(-c2cc(-c3ccc(Cl)cc3)nc(SCc3ccccc3)n2)cc1` [Compound 14, 2-(Benzylthio)-4-(4-chlorophenyl)-6-(4-methoxyphenyl)pyrimidine], the IC50 was found to be 29 ± 2 nM.
Still for that read-out and setting: then `COc1ccc(CSc2nc(-c3ccc(OC)cc3)cc(-c3cccc(OC)c3)n2)cc1` [Compound 22, 2-(4-Methoxybenzylthio)-6-(3-methoxyphenyl)-4-(4-methoxyphenyl)pyrimidine], with 22 ± 2 nM.

System in a further data set: not given
Experiment: not given
Conditions: not given
As usually defined, the melting point is the temperature, or range, at which the solid turns liquid. The compound `COc1ccc(-c2cc(-c3ccc(Cl)cc3)nc(SCc3ccccc3)n2)cc1` [Compound 14, 2-(Benzylthio)-4-(4-chlorophenyl)-6-(4-methoxyphenyl)pyrimidine] registered a melting point of 288 to 290 °C.
